The test relates to CD2F1 mice, L1210 leukemia ip, survival T/C. Kind of test: NCI In Vivo Anticancer Drug Screen. Data for tumor model L1210 Leukemia (intraperitoneal) in CD2F1 (CDF1) mice. Conditions: higher = longer survival. The gist of the method:
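Mice carrying a transplanted tumor received test compound or vehicle alone. The value is the measurement in the treated group divided by that in the vehicle-treated control group.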

[1] abbreviates: endpoint: mean survival time, dose: 6.25 mg/kg/injection, schedule: Q01DX009 (ip), vehicle: saline.
Where [2] appears, read: endpoint: mean survival time, dose: 12.5 mg/kg/injection, schedule: Q01DX009 (ip), vehicle: saline.
[3] abbreviates: endpoint: mean survival time, dose: 25.0 mg/kg/injection, schedule: Q01DX009 (ip), vehicle: saline.
The mark [4] stands for this setting: endpoint: mean survival time, dose: 100.0 mg/kg/injection, schedule: Q04DX003 (ip), vehicle: saline with Tween-80.
Where [5] appears, read: endpoint: mean survival time, dose: 200.0 mg/kg/injection, schedule: Q04DX003 (ip), vehicle: saline with Tween-80.
The mark [6] stands for this setting: endpoint: mean survival time, dose: 100.0 mg/kg/injection, schedule: Q04DX002 (ip), vehicle: saline with Tween-80.
[7] abbreviates: endpoint: mean survival time, dose: 200.0 mg/kg/injection, schedule: Q04DX002 (ip), vehicle: saline with Tween-80.
Setting [8] is: endpoint: mean survival time, dose: 400.0 mg/kg/injection, schedule: Q04DX002 (ip), vehicle: saline with Tween-80.
The mark [9] stands for this setting: endpoint: mean survival time, dose: 400.0 mg/kg/injection, schedule: Q04DX003 (ip), vehicle: saline with Tween-80.
Where [10] appears, read: endpoint: mean survival time, dose: 100.0 mg/kg/injection, schedule: Q04DX003 (ip), vehicle: Klucel (hydroxypropylcellulose) (HPC).
Setting [11] is: endpoint: mean survival time, dose: 200.0 mg/kg/injection, schedule: Q04DX003 (ip), vehicle: Klucel (hydroxypropylcellulose) (HPC).
The mark [12] stands for this setting: endpoint: mean survival time, dose: 400.0 mg/kg/injection, schedule: Q04DX003 (ip), vehicle: Klucel (hydroxypropylcellulose) (HPC).

Where “and” joins values, the source holds several entries; their conditions need not be identical. Equal values may be shown once. Toxic doses and inconclusive results are not listed. Residues, ends and D or L forms follow the SMILES beside them. *: point of attachment. Trt = c1ccc(C(c2ccccc2)(c2ccccc2)*)cc1

Take `CCCC[P+](c1ccccc1)(c1ccccc1)c1ccccc1`: the T/C is 103 % of control (endpoint: mean survival time, dose: 5.0 mg/kg/injection, schedule: Q01DX009 (ip), vehicle: saline sonified); 97 % of control (endpoint: mean survival time, dose: 5.0 mg/kg/injection, schedule: Q04DX003 (ip), vehicle: saline with Tween-80); 110 % of control (endpoint: mean survival time, dose: 10.0 mg/kg/injection, schedule: Q01DX009 (ip), vehicle: saline sonified); 95 % of control (endpoint: mean survival time, dose: 10.0 mg/kg/injection, schedule: Q04DX003 (ip), vehicle: saline with Tween-80); 120 % of control (endpoint: mean survival time, dose: 20.0 mg/kg/injection, schedule: Q01DX009 (ip), vehicle: saline sonified); 98 % of control (endpoint: mean survival time, dose: 20.0 mg/kg/injection, schedule: Q04DX003 (ip), vehicle: saline with Tween-80).

With `CC(O)c1ccc[n+](CCc2cn(C)c3ccccc23)c1` (stereo not drawn), the T/C reads like this: under setting [1], 97 % of control; (endpoint: mean survival time, dose: 6.25 mg/kg/injection, schedule: Q04DX003 (ip), vehicle: saline) 94 % of control; under setting [2], 96 % of control; (endpoint: mean survival time, dose: 12.5 mg/kg/injection, schedule: Q04DX003 (ip), vehicle: saline) 92 % of control; under setting [3], 105 % of control; (endpoint: mean survival time, dose: 25.0 mg/kg/injection, schedule: Q04DX003 (ip), vehicle: saline) 92 % of control.

In the case of `COc1ccc2c(C)cc(C)nc2n1`, the T/C (endpoint: mean survival time, dose: 75.0 mg/kg/injection, schedule: Q01DX001 (ip), vehicle: other) is 95 % of control; the T/C (endpoint: mean survival time, dose: 150.0 mg/kg/injection, schedule: Q01DX001 (ip), vehicle: other) was 104 % of control; the T/C (endpoint: mean survival time, dose: 300.0 mg/kg/injection, schedule: Q01DX001 (ip), vehicle: other) was 104 % of control.

For the compound `O=C(O)c1cccc(Cl)n1`, the T/C by setting is: (endpoint: mean survival time, dose: 100.0 mg/kg/injection, schedule: Q01DX009 (ip), vehicle: saline with Tween-80) 97 % of control; (endpoint: mean survival time, dose: 200.0 mg/kg/injection, schedule: Q01DX009 (ip), vehicle: saline with Tween-80) 97 % of control; (endpoint: mean survival time, dose: 400.0 mg/kg/injection, schedule: Q01DX009 (ip), vehicle: saline with Tween-80) 88 % of control.

Turning to `CN(C)c1ccc(Nc2c3ccccc3nc3ccccc23)cc1`, the T/C is, setting by setting: (endpoint: mean survival time, dose: 120.0 mg/kg/injection, schedule: Q03HX040 (oral), vehicle: saline) 154 % of control; (endpoint: mean survival time, dose: 150.0 mg/kg/injection, schedule: Q03HX008 (oral), vehicle: saline) 124 % of control; (endpoint: mean survival time, dose: 300.0 mg/kg/injection, schedule: Q03HX016 (oral), vehicle: saline) 152 % of control; (endpoint: median survival time, dose: 22.5 mg/kg/injection, schedule: Q01DX009 (ip), vehicle: saline) 111 % of control; (endpoint: median survival time, dose: 45.0 mg/kg/injection, schedule: Q01DX009 (ip), vehicle: saline) 161 % of control and 185 % of control; (endpoint: median survival time, dose: 90.0 mg/kg/injection, schedule: Q01DX009 (ip), vehicle: saline) 188 % of control and 207 % of control.

On to `CC(C)(CO)CN1CCCCC1`, for which the T/C reads like this: under setting [4], 101 % of control; under setting [5], 93 % of control.

For the compound `O=S(=O)(CCCCCl)Nc1ccccn1`, the T/C is 91 % of control under setting [6], 94 % of control under setting [7] and 109 % of control under setting [8].

In the case of `Nc1nc(N)c(CCCCc2ccc(NC(=O)c3cccc(S(=O)(=O)F)c3)cc2)c(N)n1`, the T/C reads like this: (endpoint: mean survival time, dose: 50.0 mg/kg/injection, schedule: Q01DX001 (ip), vehicle: saline with Tween-80) 96 % of control; (endpoint: mean survival time, dose: 100.0 mg/kg/injection, schedule: Q01DX001 (ip), vehicle: saline with Tween-80) 107 % of control; (endpoint: mean survival time, dose: 200.0 mg/kg/injection, schedule: Q01DX001 (ip), vehicle: saline with Tween-80) 100 % of control.

For the compound `COC(=O)C(CC(C)C)NC(=O)C(N)CSC(c1ccccc1)(c1ccccc1)c1ccccc1` (stereo not drawn) (H-Cys(Trt)-Leu-OMe; configuration not given here), the T/C is, setting by setting: under setting [3], 104 % of control; (endpoint: mean survival time, dose: 50.0 mg/kg/injection, schedule: Q01DX009 (ip), vehicle: saline) 110 % of control; (endpoint: mean survival time, dose: 100.0 mg/kg/injection, schedule: Q01DX009 (ip), vehicle: saline) 108 % of control.

For the compound `CC12CCC(O1)C1C(=O)NC(=O)C12` (stereo not drawn), the T/C reads like this: under setting [4], 94 % of control; under setting [5], 89 % of control; under setting [9], 98 % of control.

On to `CCOC(=O)Cc1c(C)[nH]c2c(Br)cc(C)c(C)c12`, for which the T/C is 98 % of control (endpoint: mean survival time, dose: 100.0 mg/kg/injection, schedule: Q01DX001 (ip), vehicle: other); 89 % of control (endpoint: mean survival time, dose: 200.0 mg/kg/injection, schedule: Q01DX001 (ip), vehicle: other); 110 % of control (endpoint: mean survival time, dose: 400.0 mg/kg/injection, schedule: Q01DX001 (ip), vehicle: other).

As for `c1nc(Sc2ncnc3nc[nH]c23)c2[nH]cnc2n1`, the T/C by setting is: (endpoint: mean survival time, dose: 75.0 mg/kg/injection, schedule: Q01DX009 (ip), vehicle: saline with Tween-80) 123 % of control; (endpoint: mean survival time, dose: 300.0 mg/kg/injection, schedule: Q01DX009 (ip), vehicle: saline with Tween-80) 169 % of control.

In the case of `CCCCCCCCC1SC1CCCCCCCC(=O)OCCOCCOCC` (stereo not drawn), the T/C runs as follows: under setting [10], 104 % of control; under setting [11], 104 % of control; under setting [12], 102 % of control.

With `C(CN1CCOCC1)CN1CN(CCCN2CCOCC2)CN(CCCN2CCOCC2)C1`, the T/C is 106 % of control under setting [4], 101 % of control under setting [5] and 113 % of control under setting [9].

As to `CC(=O)OCC1=C(COC(C)=O)C2OC1C(OC(C)=O)C2OC(C)=O` (stereo not drawn), the T/C is 102 % of control under setting [6], 98 % of control under setting [7] and 94 % of control under setting [8].

As for `Cc1nc(N=C(N)N)nc2ccc(Cl)cc12`, the T/C (endpoint: mean survival time, dose: 18.8 mg/kg/injection, schedule: Q01DX009 (ip), vehicle: saline) was 97 % of control.

In the case of `c1ccc2c(-c3nnn4ccccc34)cccc2c1`, the T/C was 89 % of control (endpoint: mean survival time, dose: 100.0 mg/kg/injection, schedule: Q01DX001 (ip), vehicle: saline); 106 % of control (endpoint: mean survival time, dose: 200.0 mg/kg/injection, schedule: Q01DX001 (ip), vehicle: saline); 97 % of control (endpoint: mean survival time, dose: 400.0 mg/kg/injection, schedule: Q01DX001 (ip), vehicle: saline).

For the compound `CSc1nc(Cl)cc(Sc2nc(N)nc3nc[nH]c23)n1`, the T/C (endpoint: mean survival time, dose: 18.75 mg/kg/injection, schedule: Q01DX009 (ip), vehicle: Klucel (hydroxypropylcellulose) (HPC)) was 173 % of control; the T/C (endpoint: mean survival time, dose: 37.5 mg/kg/injection, schedule: Q01DX009 (ip), vehicle: Klucel (hydroxypropylcellulose) (HPC)) is 175 % of control; the T/C (endpoint: mean survival time, dose: 150.0 mg/kg/injection, schedule: Q01DX009 (ip), vehicle: Klucel (hydroxypropylcellulose) (HPC)) is 97 % of control.

Take `CC1(C)CC(NC2=NCCO2)CC(C)(C)N1`: the T/C is, setting by setting: (endpoint: mean survival time, dose: 6.25 mg/kg/injection, schedule: Q01DX001 (ip), vehicle: saline) 94 % of control; under setting [1], 101 % of control; (endpoint: mean survival time, dose: 12.5 mg/kg/injection, schedule: Q01DX001 (ip), vehicle: saline) 97 % of control; under setting [2], 98 % of control; (endpoint: mean survival time, dose: 25.0 mg/kg/injection, schedule: Q01DX001 (ip), vehicle: saline) 90 % of control; under setting [3], 96 % of control.

Consider `CN(Cc1ccccc1)C(c1ccccc1)C(O)C(O)(c1ccccc1)c1ccccc1` (stereo not drawn), for which the T/C is, setting by setting: (endpoint: mean survival time, dose: 100.0 mg/kg/injection, schedule: Q04DX003 (ip), vehicle: acetone) 97 % of control; (endpoint: mean survival time, dose: 200.0 mg/kg/injection, schedule: Q04DX003 (ip), vehicle: acetone) 97 % of control; (endpoint: mean survival time, dose: 400.0 mg/kg/injection, schedule: Q04DX003 (ip), vehicle: acetone) 90 % of control.

For `Cc1cccc(N2C(=O)CSC2=S)c1`, the T/C by setting is: under setting [4], 92 % of control; under setting [5], 88 % of control; under setting [9], 95 % of control.

Regarding `N#CC(c1cccnc1)N1CCOCC1` (stereo not drawn), the T/C reads like this: (endpoint: mean survival time, dose: 25.0 mg/kg/injection, schedule: Q01DX009 (ip), vehicle: saline with Tween-80) 98 % of control; (endpoint: mean survival time, dose: 50.0 mg/kg/injection, schedule: Q01DX009 (ip), vehicle: saline with Tween-80) 103 % of control.

Turning to `Cc1ccnc(N)c1N`, the T/C is 91 % of control (endpoint: mean survival time, dose: 12.5 mg/kg/injection, schedule: Q01DX009 (ip), vehicle: other) and 94 % of control (endpoint: mean survival time, dose: 25.0 mg/kg/injection, schedule: Q01DX009 (ip), vehicle: other).

Consider `O=C(O)c1ccccc1C(=O)Nc1cccc(Cl)c1`, for which the T/C by setting is: under setting [10], 110 % of control; under setting [11], 93 % of control; under setting [12], 98 % of control.

(Values after PubChem BioAssay AID256 (DTP/NCI, 2004).)
